Test results published in the CheMixHub ionic liquid set.

Experiment: xn = mol fraction of the nth substance listed

CC(=O)[O-].CC[NH3+] + O
298.15 K, 101 kPa
Details	electrical conductivity [S/m]
x2 = 0.6519	1.55
x2 = 0.8802	2.91
x2 = 0.9004	3.01
x2 = 0.91	3.05
x2 = 0.93	3.06

CCCCCCCCCCCCCC[P+](CCCCCC)(CCCCCC)CCCCCC.O=S(=O)([N-]S(=O)(=O)C(F)(F)F)C(F)(F)F + O
Details	viscosity [mPa·s]
328.15 K, 100 kPa, x2 = 0.088	65.75

CCCCCCCCCCCCCCn1cc[n+](C)c1.[Br-] + O
electrical conductivity [S/m], 101 kPa, frequency 0.001 MHz
Details	298.15 K	308.15 K	318.15 K
x1 = 4.74e-06	0.00249	0.00401	0.00409
x1 = 9.35e-06	0.00459	0.00671	0.00708
x1 = 1.386e-05	0.0065	0.0093	0.0101
x1 = 1.825e-05	0.00834	0.011	0.0127
x1 = 2.252e-05	0.0101	0.0135	0.0154
x1 = 2.669e-05	0.0119	0.0154	0.0182
x1 = 3.076e-05	0.0136	0.0173	0.0206
x1 = 3.474e-05	0.0152	0.0199	0.0232
x1 = 3.862e-05	0.0167	0.0218	0.0253
x1 = 4.24e-05	0.0183	0.0238	0.028
x1 = 4.613e-05	0.0192	0.0252	0.0303
x1 = 4.973e-05	0.0199	0.0265	0.0322
x1 = 5.334e-05	0.0204	0.0273	0.0335
x1 = 5.676e-05	0.0209	0.0282	0.0345
x1 = 6e-05	0.0213	0.0288	0.0356
x1 = 6.343e-05	0.0217	0.0294	0.0365
x1 = 6.667e-05	0.0221	0.03	0.0372
x1 = 6.973e-05	0.0225	0.0305	0.0377
x1 = 7.28e-05	0.0229	0.0311	0.0383
x1 = 7.586e-05	0.0233	0.0316	0.0389
x1 = 7.892e-05	0.0236	0.0321	0.0396
x1 = 8.18e-05	0.024	0.0326	0.0408
x1 = 8.451e-05	0.0243	0.0329	0.0414
x1 = 8.739e-05	0.0246	0.0333	0.0418

CCCCCCCC[N+](C)(CCCCCCCC)CCCCCCCC.O=S(=O)([N-]S(=O)(=O)C(F)(F)F)C(F)(F)F + O
100 kPa, x1 = 0.8468
Details	viscosity [mPa·s]
313.15 K	239
343.15 K	65

CCCCCCCC[n+]1ccn(C)c1.O=C([O-])[C@@H]1CCCN1 + O
298.15 K, 100 kPa, frequency 0.001 MHz
Details	electrical conductivity [S/m]
x1 = 0.001745	0.149
x1 = 0.002409	0.209
x1 = 0.002947	0.264
x1 = 0.003555	0.308
x1 = 0.004199	0.369
x1 = 0.004895	0.425
x1 = 0.005502	0.483
x1 = 0.006143	0.531
x1 = 0.006819	0.572
x1 = 0.0076	0.608
x1 = 0.008416	0.648
x1 = 0.009336	0.688
x1 = 0.01018	0.725
x1 = 0.01137	0.783
x1 = 0.01233	0.819
x1 = 0.01355	0.879

CCCCCCCCn1cc[n+](C)c1.F[B-](F)(F)F + O
100 kPa
Details	viscosity [mPa·s]
298.15 K, x2 = 0.9487	5.25
308 K, x1 = 0.5482	34.91

CCCCCCCCn1cc[n+](C)c1.[Br-] + O
electrical conductivity [S/m]
Details	298.15 K	308.15 K
100 kPa, frequency 0.001 MHz, x1 = 0.0006843	0.249	–
100 kPa, frequency 0.001 MHz, x1 = 0.0009721	0.348	–
100 kPa, frequency 0.001 MHz, x1 = 0.001278	0.462	–
100 kPa, frequency 0.001 MHz, x1 = 0.001601	0.576	–
100 kPa, frequency 0.001 MHz, x1 = 0.001889	0.683	–
100 kPa, frequency 0.001 MHz, x1 = 0.002176	0.778	–
100 kPa, frequency 0.001 MHz, x1 = 0.002445	0.88	–
100 kPa, frequency 0.001 MHz, x1 = 0.002714	0.965	–
100 kPa, frequency 0.001 MHz, x1 = 0.003072	1.06	–
100 kPa, frequency 0.001 MHz, x1 = 0.003341	1.1	–
100 kPa, frequency 0.001 MHz, x1 = 0.003681	1.15	–
100 kPa, frequency 0.001 MHz, x1 = 0.004092	1.22	–
100 kPa, frequency 0.001 MHz, x1 = 0.004592	1.28	–
101 kPa, frequency 1 MHz, x1 = 0.0001962	0.1011	0.122

Details	electrical conductivity [S/m]	viscosity [mPa·s]
298.15 K, 100 kPa, x1 = 6.847e-05	–	0.892
298.15 K, 100 kPa, x1 = 0.0003279	–	0.899
298.15 K, 101 kPa, x1 = 1.982e-05	–	0.891
298.15 K, 101 kPa, x1 = 3.243e-05	–	0.892
298.15 K, 101 kPa, x1 = 0.0001962	–	0.912
298.15 K, 101 kPa, x1 = 0.001831	–	0.965
298.15 K, 101 kPa, x1 = 0.003519	1.17	–
298.15 K, 101 kPa, x1 = 0.003598	–	1.025
298.15 K, 101 kPa, x1 = 0.00377	1.23	–
298.15 K, 101 kPa, x1 = 0.003967	1.26	–
298.15 K, 101 kPa, x1 = 0.004163	1.3	–
298.15 K, 101 kPa, x1 = 0.004378	1.34	–
298.15 K, 101 kPa, x1 = 0.004538	1.36	–
298.15 K, 101 kPa, x1 = 0.004717	1.39	–
298.15 K, 101 kPa, x1 = 0.004895	1.41	–
298.15 K, 101 kPa, x1 = 0.005109	1.45	–
298.15 K, 101 kPa, x1 = 0.005288	1.48	–
298.15 K, 101 kPa, x1 = 0.005443	–	1.103
298.15 K, 101 kPa, x1 = 0.005484	1.51	–
298.15 K, 101 kPa, x1 = 0.005698	1.54	–
298.15 K, 101 kPa, x1 = 0.005894	1.56	–
298.15 K, 101 kPa, x1 = 0.007132	–	1.172
303.15 K, 100 kPa, x1 = 0.0002	–	0.803
308.15 K, 100 kPa, x1 = 0.0003279	–	0.726
308.15 K, 101 kPa, x1 = 0.0001962	–	0.736
313.15 K, 100 kPa, x1 = 0.0002	–	0.657

CCCC[n+]1ccn(C)c1.COP(=O)([O-])OC + O
101 kPa
Details	viscosity [mPa·s]
298.15 K, x2 = 0.398	251
303.15 K, x2 = 0.201	291
303.15 K, x2 = 0.601	81.6
313.15 K, x2 = 0.799	15.81
318.15 K, x2 = 0.398	78.8
328.15 K, x2 = 0.398	49.68

CCCC[n+]1ccn(C)c1.O=S(=O)([O-])C(F)(F)F + O
Details	viscosity [mPa·s]
343.15 K, 101 kPa, x2 = 0.1939	10.55

CCOS(=O)(=O)[O-].CC[N+]1(C)CCOCC1 + O
101 kPa
Details	viscosity [mPa·s]
313.15 K, x2 = 0.193	750
333.15 K, x2 = 0.3681	81
333.15 K, x2 = 0.7786	6.7
343.15 K, x2 = 0.6835	9.5
